The source of these data is patent US9877999B2, “Methods for treating metastatic stage prostate cancer” (Ferring International SA, priority 2008, dated 2018).

A short description of one data set: clinical. On the set-up: species or system human. The note with it: in vivo. The source says: Plasma protein binding is estimated to be approximately 90%.
The conditions of data set [1]: human, in vivo, sc.

Square brackets hold non-standard residues; d marks the D form. Peptide text beside a SMILES is read from it. * marks the point of attachment. dPhe(4-NHCONH2) = NC(=O)Nc1ccc(C[C@@H](N)C(=O)O)cc1; Dihydroorotyl(S) = O=C1C[C@@H](C(=O)*)NC(=O)N1; dPhe(4-Cl) = N[C@H](Cc1ccc(Cl)cc1)C(=O)O; Phe(4-NH2) = Nc1ccc(C[C@H](N)C(=O)O)cc1; d2Nal = N[C@H](Cc1ccc2ccccc2c1)C(=O)O; Lys(iPr) = CC(C)NCCCC[C@H](N)C(=O)O; d3Pal = N[C@H](Cc1cccnc1)C(=O)O

As to `CC(=O)N[C@H](Cc1ccc2ccccc2c1)C(=O)N[C@H](Cc1ccc(Cl)cc1)C(=O)N[C@H](Cc1cccnc1)C(=O)N[C@@H](CO)C(=O)N[C@@H](Cc1ccc(NC(=O)[C@@H]2CC(=O)NC(=O)N2)cc1)C(=O)N[C@H](Cc1ccc(NC(N)=O)cc1)C(=O)N[C@@H](CC(C)C)C(=O)N[C@@H](CCCCNC(C)C)C(=O)N1CCC[C@H]1C(=O)N[C@H](C)C(N)=O` [degarelix, D-Alaninamide, N-acetyl-3-(2-naphthalenyl)-D-alanyl-4-chloro-D-phenylalanyl-3-(3-pyridinyl)-D-alanyl-L-seryl-4-[[[(4S)-hexahydro-2,6-dioxo-4-pyrimidinyl]carbonyl]amino]-L phenylalanyl-4-[(aminocarbonyl)amino]-D-phenylalanyl-L leucyl-N6-(1-methylethyl)-L-lysyl-L-prolyl] (Ac-[d2Nal][dPhe(4-Cl)][d3Pal]S[Phe(4-NH2)](Dihydroorotyl(S))[dPhe(4-NHCONH2)]L[Lys(iPr)]P[dA]-NH2), the “fraction excreted via the hepato-biliary system” value in “clinical” is on record as “approximately 80%”. Also, in “clinical” (male, human), the Vd is roughly 1 L/kg, the clearance fell in the range of 0.583 to 0.833 mL/min/kg and the dose excreted is roughly 20%. The “significant metabolites in plasma samples” value in data set [1] was “No significant metabolites were detected”. In addition, the exposure (AUC) in data set [1] (240 mg) was 1240 ng·days/mL.
